The compounds below were run against Human neutrophil elastase (Homo sapiens (Human), UniProt P08246) (assay: Human Neutrophil Elastase Assay). Conditions: substrate MeOSuc-Ala-Ala-Pro-Val-AMC 250 μM, pH 7.5, fluorescence.
Type: biochemical
Experimental: Human Neutrophil Elastase Assay
All other materials were of the highest grade commercially available.
The following buffers were used: Compound buffer: 100 mM Tris, 500 mM NaCl, adjusted to pH 7.5; Assay buffer: 100 mM Tris, 500 mM NaCl, adjusted to pH 7.5, containing 0.01% BSA.
Assay conditions: Test compounds were prediluted in DMSO and subsequently in compound buffer (5% DMSO final). […] After inactivation of the enzyme, fluorescence intensities were measured at 380 nm excitation and 460 nm emission wavelengths.
Each plate contains wells with a high value control (DMSO+enzyme+substrate) and wells with a low value control (DMSO+inactivated enzyme+substrate). IC50 values were estimated using a sigmoidal concentration response curve with variable slope. Means of low values were taken as 0%, means of high values as 100%. IC50 values of selected compound in the Neutrophil Elastase assay: […]

Sequence of Human neutrophil elastase (P08246 30-267): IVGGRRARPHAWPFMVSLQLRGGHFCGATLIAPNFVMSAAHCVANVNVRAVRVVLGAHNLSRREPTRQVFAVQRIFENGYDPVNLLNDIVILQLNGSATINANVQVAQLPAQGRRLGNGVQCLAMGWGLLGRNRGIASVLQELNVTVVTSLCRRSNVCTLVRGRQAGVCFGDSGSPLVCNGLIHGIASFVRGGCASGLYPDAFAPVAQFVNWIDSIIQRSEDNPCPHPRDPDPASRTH

Row | Compound | IC50 [nM]
1 | Cc1c(-c2cccc(C(F)(F)F)c2)c(=O)c(C(=O)NCc2ccc(S(C)(=O)=O)cc2)cn1C(C)C [Example 1.2, 1-isopropyl-6-methyl-4-oxo-5-(3-trifluoromethyl-phenyl)-1,4-dihydro-pyridine-3-carboxylic acid 4-methanesulfonyl-benzylamide] | 12
2 | CCCn1cc(C(=O)NCc2ccc(S(C)(=O)=O)cc2)c(=O)c(-c2cccc(C(F)(F)F)c2)c1C [Example 1.3] | 28
3 | Cc1c(-c2cccc(C(F)(F)F)c2)c(=O)c(C(=O)NCc2ccc(S(C)(=O)=O)cc2)cn1CC1CC1(F)F (centres unmarked) [Example 1.7] | 37
4 | CCn1cc(C(=O)NCc2ccc(S(C)(=O)=O)cn2)c(=O)c(-c2cccc(C(F)(F)F)c2)c1C [Example 2.1] | 57
5 | CCCn1cc(C(=O)NCc2ccc(S(C)(=O)=O)cn2)c(=O)c(-c2cccc(C(F)(F)F)c2)c1C [Example 2.2] | 20
6 | Cc1c(-c2cccc(C(F)(F)F)c2)c(=O)c(C(=O)NCc2ccc(S(C)(=O)=O)cn2)cn1CC(C)C [Example 2.3] | 30
7 | Cc1c(-c2cccc(C(F)(F)F)c2)c(=O)c(C(=O)NCc2ccc(S(C)(=O)=O)cn2)cn1CC1CCOC1 (centres unmarked) [Example 2.4] | 73
8 | Cc1c(-c2cccc(C(F)(F)F)c2)c(=O)c(C(=O)NCc2cccnn2)cn1C(C)C [Example 3.3] | 90
9 | Cc1c(-c2cccc(C(F)(F)F)c2)c(=O)c(C(=O)NCc2ccc(S(N)(=O)=O)cc2)cn1C(C)C [Example 3.7] | 40
10 | Cc1c(-c2cccc(C(F)(F)F)c2)c(=O)c(C(=O)NCc2ccc(N3CCNC3=O)cc2)cn1C(C)C [Example 3.8] | 65
11 | Cc1c(-c2cccc(C(F)F)c2)c(=O)c(C(=O)NCc2cnn(C)c2)cn1C(C)C [Example 4.2] | 60

Continued, values first:

Row | IC50 [nM] | Compound
12 | 9 | Cc1c(-c2cccc(C(F)(F)F)c2)c(=O)c(C(=O)NCc2ccc([S+](C)[O-])cc2)cn1C(C)C (racemic) [Example 27.1, 1-Isopropyl-6-methyl-4-oxo-5-(3-trifluoromethyl-phenyl)-1,4-dihydro-pyridine-3-carboxylic acid 4-methanesulfinyl-benzylamide]
13 | 30 | Cc1c(-c2cccc(C(F)(F)F)c2)c(=O)c(C(=O)NCc2ccc([S+](C)[O-])cc2)cn1C(C)C (single isomer, unassigned) [Example 27.1B]
14 | 33 | CCn1cc(C(=O)NCc2ccc(S(C)(=O)=O)cc2)c(=O)c(-c2cccc(C(F)(F)F)c2)c1C [Example 1.1, 1-Ethyl-6-methyl-4-oxo-5-(3-trifluoromethyl-phenyl)-1,4-dihydro-pyridine-3-carboxylic acid 4-methanesulfonyl-benzylamide]
15 | 38 | Cc1nnc(CNC(=O)c2cn(C(C)C)c(C)c(-c3cccc(C(F)(F)F)c3)c2=O)o1 [Example 3.1, 1-Isopropyl-6-methyl-4-oxo-5-(3-trifluoromethyl-phenyl)-1,4-dihydro-pyridine-3-carboxylic acid (5-methyl-[1,3,4]oxadiazol-2-ylmethyl)-amide]
16 | 97 | Cc1c(-c2cccc(C(F)(F)F)c2)c(=O)c(C(=O)NCc2ccncc2)cn1C(C)C [Example 3.2]
17 | 62 | Cc1c(-c2cccc(C(F)(F)F)c2)c(=O)c(C(=O)NCc2cnn(C)c2)cn1C(C)C [Example 3.4]
18 | 64 | Cc1c(-c2cccc(C(F)(F)F)c2)c(=O)c(C(=O)NCc2ccc(C#N)cc2)cn1C(C)C [Example 3.5]
19 | 89 | Cc1c(-c2cccc(C(F)(F)F)c2)c(=O)c(C(=O)NCc2cccc(S(C)(=O)=O)c2)cn1C(C)C [Example 3.6]
20 | 20 | Cc1c(-c2cccc(C(F)(F)F)c2)c(=O)c(C(=O)NCc2ccc(CN3CCCC3=O)cc2)cn1C(C)C [Example 3.9]
21 | 98 | Cc1c(-c2cccc(C(F)F)c2)c(=O)c(C(=O)NCc2cccnn2)cn1C(C)C [Example 4.1]
22 | 27 | Cc1nnc(CNC(=O)c2cn(C(C)C)c(C)c(-c3cccc(C(F)F)c3)c2=O)o1 [Example 4.3]
23 | 72 | Cc1c(-c2cccc(C(F)F)c2)c(=O)c(C(=O)NCc2cccc(=O)[nH]2)cn1C(C)C [Example 4.4]

— patent US9340507B2, “Substituted 4-pyridones and their use as inhibitors of neutrophil elastase activity” (Boehringer Ingelheim International GmbH, priority 2012, dated 2016)
